What all share (assay type): cell-based
Test [1] addresses Integrin alpha-4/beta-1 (Homo sapiens, UniProt P05556+P13612). Put plainly: Binding affinity to integrin alpha-4-beta-1 expressed in jurkat J6 cells.
The target of test [2] is Integrin alpha-5/beta-1 (Homo sapiens, UniProt P05556+P08648). Put plainly: Binding affinity to integrin alpha-5-beta-1 expressed in jurkat J6 cells.
Test [3] addresses Integrin alpha-V/beta-3 (Homo sapiens, UniProt P05106+P06756). In words: Binding affinity to integrin alphavbeta3 expressed in jurkat J6 cells.
The target of test [4] is Integrin alpha-V/beta-6 (Homo sapiens, UniProt P06756+P18564). In words: Binding affinity to integrin alpha-v-beta-6 expressed in jurkat J6 cells.
Sequence of Integrin alpha-V/beta-6 (P06756 31-889 limits assumed): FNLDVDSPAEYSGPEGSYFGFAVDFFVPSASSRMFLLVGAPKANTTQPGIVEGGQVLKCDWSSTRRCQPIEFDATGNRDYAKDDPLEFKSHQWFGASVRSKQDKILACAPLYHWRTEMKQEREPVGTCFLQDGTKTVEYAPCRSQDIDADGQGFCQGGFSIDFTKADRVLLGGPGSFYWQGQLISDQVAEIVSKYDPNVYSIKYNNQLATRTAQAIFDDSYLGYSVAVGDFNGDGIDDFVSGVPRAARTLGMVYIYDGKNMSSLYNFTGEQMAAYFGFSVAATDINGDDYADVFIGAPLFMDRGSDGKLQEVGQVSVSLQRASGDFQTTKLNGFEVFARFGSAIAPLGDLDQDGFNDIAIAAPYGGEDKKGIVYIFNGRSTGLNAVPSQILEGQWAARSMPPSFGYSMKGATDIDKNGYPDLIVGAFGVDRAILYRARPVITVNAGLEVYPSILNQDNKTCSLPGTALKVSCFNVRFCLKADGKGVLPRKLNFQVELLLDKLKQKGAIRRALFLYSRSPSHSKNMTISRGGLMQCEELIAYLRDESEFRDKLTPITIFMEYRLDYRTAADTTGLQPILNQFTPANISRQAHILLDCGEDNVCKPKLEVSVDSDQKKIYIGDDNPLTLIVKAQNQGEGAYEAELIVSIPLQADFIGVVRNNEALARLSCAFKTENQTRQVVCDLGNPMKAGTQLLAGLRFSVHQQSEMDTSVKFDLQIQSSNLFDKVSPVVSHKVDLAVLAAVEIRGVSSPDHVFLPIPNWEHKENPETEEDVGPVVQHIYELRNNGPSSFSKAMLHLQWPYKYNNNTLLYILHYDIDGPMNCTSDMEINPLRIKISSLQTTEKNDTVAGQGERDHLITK
Sequence of Integrin alpha-V/beta-6 (P06756 891-1048 limits assumed): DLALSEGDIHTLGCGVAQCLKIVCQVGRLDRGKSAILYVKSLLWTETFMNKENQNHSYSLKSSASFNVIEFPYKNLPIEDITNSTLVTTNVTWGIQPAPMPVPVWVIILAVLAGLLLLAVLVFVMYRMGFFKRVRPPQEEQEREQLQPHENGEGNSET
Sequence of Integrin alpha-V/beta-6 (P18564 22-788 limits assumed): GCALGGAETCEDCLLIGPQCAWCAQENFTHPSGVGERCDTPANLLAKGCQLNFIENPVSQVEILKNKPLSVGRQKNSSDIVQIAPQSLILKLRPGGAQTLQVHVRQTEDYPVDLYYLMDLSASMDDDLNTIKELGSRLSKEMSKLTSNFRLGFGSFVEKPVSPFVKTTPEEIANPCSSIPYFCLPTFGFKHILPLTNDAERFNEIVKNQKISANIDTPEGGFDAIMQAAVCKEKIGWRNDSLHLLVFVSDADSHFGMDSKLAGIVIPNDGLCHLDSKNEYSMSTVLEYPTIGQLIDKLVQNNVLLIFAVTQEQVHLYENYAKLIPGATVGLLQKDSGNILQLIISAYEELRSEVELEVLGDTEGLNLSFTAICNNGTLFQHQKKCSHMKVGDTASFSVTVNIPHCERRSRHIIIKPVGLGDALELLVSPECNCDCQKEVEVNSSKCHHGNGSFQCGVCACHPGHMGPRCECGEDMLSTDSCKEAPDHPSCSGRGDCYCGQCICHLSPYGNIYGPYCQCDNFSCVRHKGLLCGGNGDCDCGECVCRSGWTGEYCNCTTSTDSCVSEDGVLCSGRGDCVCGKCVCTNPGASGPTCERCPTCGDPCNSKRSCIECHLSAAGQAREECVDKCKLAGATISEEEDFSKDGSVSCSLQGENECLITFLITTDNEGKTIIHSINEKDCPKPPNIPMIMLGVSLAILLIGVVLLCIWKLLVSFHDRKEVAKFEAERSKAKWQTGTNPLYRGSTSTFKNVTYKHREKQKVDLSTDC
Test [5] has as its target T1, Integrin alpha-4/beta-7 (Homo sapiens, UniProt P13612+P26010).
T1 sequence (P13612 whole entry): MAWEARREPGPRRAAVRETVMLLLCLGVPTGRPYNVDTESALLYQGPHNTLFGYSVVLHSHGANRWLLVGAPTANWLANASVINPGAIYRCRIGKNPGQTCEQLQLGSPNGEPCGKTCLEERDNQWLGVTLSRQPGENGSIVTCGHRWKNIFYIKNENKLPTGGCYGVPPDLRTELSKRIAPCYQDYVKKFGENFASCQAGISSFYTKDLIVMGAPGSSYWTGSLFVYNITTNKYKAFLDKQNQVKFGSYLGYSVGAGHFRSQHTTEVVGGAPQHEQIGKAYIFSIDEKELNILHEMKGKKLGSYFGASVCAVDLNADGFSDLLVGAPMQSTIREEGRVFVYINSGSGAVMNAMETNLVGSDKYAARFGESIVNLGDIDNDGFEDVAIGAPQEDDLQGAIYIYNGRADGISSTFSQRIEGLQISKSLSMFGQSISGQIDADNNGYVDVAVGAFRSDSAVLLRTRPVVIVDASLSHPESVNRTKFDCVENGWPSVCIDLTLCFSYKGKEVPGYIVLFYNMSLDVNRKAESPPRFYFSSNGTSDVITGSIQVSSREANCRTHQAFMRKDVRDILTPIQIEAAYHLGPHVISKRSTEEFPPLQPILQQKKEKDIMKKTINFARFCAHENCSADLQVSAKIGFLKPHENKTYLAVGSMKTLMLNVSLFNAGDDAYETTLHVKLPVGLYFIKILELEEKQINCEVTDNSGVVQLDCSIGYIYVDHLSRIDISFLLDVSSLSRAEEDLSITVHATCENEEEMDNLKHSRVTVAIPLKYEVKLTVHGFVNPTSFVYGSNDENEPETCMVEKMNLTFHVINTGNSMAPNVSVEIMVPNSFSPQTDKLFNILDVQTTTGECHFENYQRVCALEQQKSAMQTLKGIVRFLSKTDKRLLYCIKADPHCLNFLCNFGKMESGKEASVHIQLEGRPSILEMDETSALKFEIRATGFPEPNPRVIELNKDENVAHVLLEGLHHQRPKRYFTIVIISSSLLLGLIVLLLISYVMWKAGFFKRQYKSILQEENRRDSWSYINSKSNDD
T1 sequence (P26010 whole entry): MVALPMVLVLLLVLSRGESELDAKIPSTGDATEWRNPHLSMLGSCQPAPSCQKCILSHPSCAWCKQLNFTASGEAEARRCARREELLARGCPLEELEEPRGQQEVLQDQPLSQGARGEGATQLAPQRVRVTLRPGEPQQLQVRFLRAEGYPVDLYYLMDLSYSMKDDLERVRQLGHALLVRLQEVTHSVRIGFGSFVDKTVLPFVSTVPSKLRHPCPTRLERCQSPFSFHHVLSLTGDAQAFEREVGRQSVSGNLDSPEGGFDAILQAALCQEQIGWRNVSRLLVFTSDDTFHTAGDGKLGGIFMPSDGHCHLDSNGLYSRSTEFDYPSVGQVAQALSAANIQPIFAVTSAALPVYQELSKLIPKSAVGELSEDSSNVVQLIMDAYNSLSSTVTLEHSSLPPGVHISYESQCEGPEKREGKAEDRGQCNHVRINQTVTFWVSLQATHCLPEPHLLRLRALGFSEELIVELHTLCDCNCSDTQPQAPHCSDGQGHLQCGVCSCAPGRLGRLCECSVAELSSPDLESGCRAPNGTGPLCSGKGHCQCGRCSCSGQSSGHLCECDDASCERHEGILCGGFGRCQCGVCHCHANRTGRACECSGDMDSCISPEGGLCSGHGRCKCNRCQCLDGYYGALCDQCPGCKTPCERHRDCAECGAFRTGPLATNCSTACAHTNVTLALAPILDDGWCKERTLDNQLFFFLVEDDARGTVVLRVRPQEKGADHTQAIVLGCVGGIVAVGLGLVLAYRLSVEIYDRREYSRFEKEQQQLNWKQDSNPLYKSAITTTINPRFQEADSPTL
Put plainly: Binding affinity to integrin alpha-4-beta-7 expressed in jurkat J6 cells.

Test [6] deals with Integrin alpha-IIb/beta-3 (Homo sapiens, UniProt P05106+P08514). In words: Binding affinity to integrin […] expressed in jurkat J6 cells.

Structures are written as SMILES. pKi: −log10 of the molar value.

Sequence of Integrin alpha-4/beta-1 (P05556 whole entry, one chain of several): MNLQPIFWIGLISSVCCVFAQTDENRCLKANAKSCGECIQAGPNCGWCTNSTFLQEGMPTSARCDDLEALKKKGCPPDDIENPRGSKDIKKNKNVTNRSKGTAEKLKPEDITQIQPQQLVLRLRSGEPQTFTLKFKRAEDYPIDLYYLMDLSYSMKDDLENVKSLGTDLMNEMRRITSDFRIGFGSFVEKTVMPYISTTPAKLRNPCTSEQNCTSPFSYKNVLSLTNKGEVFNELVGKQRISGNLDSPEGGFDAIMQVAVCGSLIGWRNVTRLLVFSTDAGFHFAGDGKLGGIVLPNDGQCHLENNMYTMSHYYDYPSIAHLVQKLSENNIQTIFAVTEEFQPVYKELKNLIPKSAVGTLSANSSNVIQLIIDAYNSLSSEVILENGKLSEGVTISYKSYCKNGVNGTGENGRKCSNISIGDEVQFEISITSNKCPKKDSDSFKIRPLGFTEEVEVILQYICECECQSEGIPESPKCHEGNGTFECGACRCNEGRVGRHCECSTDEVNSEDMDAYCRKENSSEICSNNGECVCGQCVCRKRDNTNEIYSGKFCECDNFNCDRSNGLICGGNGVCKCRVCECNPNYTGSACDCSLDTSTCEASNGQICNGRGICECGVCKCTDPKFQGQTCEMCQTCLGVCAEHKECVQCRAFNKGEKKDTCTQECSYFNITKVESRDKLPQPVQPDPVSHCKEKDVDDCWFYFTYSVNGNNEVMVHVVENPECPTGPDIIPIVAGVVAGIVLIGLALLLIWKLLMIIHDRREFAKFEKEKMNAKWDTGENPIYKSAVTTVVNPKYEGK
Sequence of Integrin alpha-5/beta-1 (P05556 21-798 limits assumed): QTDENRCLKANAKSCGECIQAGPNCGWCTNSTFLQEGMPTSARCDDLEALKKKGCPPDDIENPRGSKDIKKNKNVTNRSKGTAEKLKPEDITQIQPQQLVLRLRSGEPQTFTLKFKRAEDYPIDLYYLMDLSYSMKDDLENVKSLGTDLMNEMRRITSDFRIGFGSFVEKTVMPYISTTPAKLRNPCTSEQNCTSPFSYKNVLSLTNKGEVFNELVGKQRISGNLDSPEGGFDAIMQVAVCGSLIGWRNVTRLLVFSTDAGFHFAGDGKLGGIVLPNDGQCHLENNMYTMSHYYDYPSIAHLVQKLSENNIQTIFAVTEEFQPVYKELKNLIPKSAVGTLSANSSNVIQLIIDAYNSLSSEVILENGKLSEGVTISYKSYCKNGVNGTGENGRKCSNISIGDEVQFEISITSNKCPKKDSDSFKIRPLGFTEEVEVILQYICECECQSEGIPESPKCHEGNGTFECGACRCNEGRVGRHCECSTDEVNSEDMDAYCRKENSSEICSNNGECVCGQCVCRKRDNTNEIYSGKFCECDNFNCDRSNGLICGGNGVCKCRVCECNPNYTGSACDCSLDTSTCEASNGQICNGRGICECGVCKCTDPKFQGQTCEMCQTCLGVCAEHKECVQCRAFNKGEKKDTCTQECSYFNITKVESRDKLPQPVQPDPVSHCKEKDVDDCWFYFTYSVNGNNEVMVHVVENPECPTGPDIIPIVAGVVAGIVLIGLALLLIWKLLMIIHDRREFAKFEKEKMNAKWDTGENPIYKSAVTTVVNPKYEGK
Sequence of Integrin alpha-5/beta-1 (P08648 42-894 partner limits assumed): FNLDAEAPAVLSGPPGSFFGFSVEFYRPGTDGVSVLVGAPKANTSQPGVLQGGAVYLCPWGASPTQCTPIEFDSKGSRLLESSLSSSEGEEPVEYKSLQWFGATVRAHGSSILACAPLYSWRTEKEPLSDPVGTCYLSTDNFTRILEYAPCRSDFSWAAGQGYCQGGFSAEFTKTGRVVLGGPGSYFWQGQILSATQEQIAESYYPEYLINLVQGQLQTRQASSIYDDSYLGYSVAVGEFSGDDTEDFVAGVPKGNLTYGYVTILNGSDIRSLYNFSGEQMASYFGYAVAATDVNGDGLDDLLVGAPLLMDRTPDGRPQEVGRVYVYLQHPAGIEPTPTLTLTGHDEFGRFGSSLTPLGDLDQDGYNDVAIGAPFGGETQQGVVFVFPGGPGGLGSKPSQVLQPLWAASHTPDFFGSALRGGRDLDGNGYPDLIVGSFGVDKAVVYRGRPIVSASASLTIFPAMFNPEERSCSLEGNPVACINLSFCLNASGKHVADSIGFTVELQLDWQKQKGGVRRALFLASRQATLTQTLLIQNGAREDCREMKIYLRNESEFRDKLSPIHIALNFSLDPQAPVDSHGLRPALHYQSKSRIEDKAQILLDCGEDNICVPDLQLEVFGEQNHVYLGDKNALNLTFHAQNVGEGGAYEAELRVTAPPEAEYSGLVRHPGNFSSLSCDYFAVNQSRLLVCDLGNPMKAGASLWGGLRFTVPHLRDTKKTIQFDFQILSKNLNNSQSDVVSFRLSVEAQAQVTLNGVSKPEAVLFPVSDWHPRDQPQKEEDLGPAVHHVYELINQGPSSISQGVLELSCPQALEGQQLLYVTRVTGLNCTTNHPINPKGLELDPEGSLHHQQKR
Sequence of Integrin alpha-5/beta-1 (P08648 895-1049 partner limits assumed): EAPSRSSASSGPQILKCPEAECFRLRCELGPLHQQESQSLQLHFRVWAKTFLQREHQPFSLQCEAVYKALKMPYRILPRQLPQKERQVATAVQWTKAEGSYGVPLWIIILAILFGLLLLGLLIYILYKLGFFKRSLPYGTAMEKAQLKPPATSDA

For `Cc1ccccc1NC(=O)Nc1ccc(-c2cccn(-c3ccc(CCC(=O)O)cc3)c2=O)cc1`, the pKi (as a rule, the negative decadic logarithm of the Ki, by convention in mol/L) in test [1] was under 6.00.

Turning to `Cc1ccccc1NC(=O)Nc1ccc(-c2cccn(Cc3ccc(C(=O)O)cc3)c2=O)cc1`, the pKi in test [1] is 6.50. Consider `Cc1ccccc1NC(=O)Nc1ccc(-c2cnn(Cc3ccc(CCC(=O)O)cc3)c2)cc1`, for which the pKi in test [1] is under 6.00.

As for `Cc1ccccc1NC(=O)Nc1ccc(-c2cccn(Cc3ccc(CC(=O)O)cc3)c2=O)cc1`, in test [1], the pKi is 6.60. Same read-out and setting: as for `Cc1ccccc1NC(=O)Nc1ccc(-c2cccn(Cc3ccccc3CCC(=O)O)c2=O)cc1`, the figure is 6.40; as for `COc1cc(-c2cccn(Cc3ccc(CCC(=O)O)cc3)c2=O)ccc1NC(=O)Nc1ccccc1C`, 9.30. On the same count and under the same terms, as for `COc1cc(CC(=O)Nc2ccc([C@H](C)CC(=O)O)cc2)ccc1NC(=O)Nc1ccccc1C`, the figure is 9.10.

On to `Cc1ccccc1NC(=O)Nc1ccc(-c2cccn(Cc3ccc(CCC(=O)O)cc3)c2=O)cc1`, for which the pKi in test [2] was under 5.00; in test [3], under 5.00; in test [4] it was under 5.00; in test [1], 8.70; in test [5], under 5.00; in test [6], under 5.00.

`Cc1ccccc1NC(=O)Nc1ccc(-c2cccn(Cc3cccc(CCC(=O)O)c3)c2=O)cc1`: in test [1], the pKi was 8.40. With `Cc1ccccc1NC(=O)Nc1ccc(-c2ccn(Cc3ccc(CCC(=O)O)cc3)n2)cc1`, the pKi in test [1] was 6.60. Still for that read-out and setting: as for `Cc1ccccc1NC(=O)Nc1ccc(CC(=O)Nc2ccc([C@H](C)CC(=O)O)cc2)cc1`, the figure is 7.20. Same read-out and setting: as for `Cc1ccccc1NC(=O)Nc1ccc(-c2ncn(Cc3ccc(CCC(=O)O)cc3)n2)cc1`, the figure is 6.30. Same read-out and setting: as for `Cc1ccccc1NC(=O)Nc1ccc(-c2cn(Cc3ccc(CCC(=O)O)cc3)cn2)cc1`, the figure is under 4.00; as for `COc1cc(-c2ccn(Cc3ccc(CCC(=O)O)cc3)n2)ccc1NC(=O)Nc1ccccc1C`, 7.60. Consider `COc1cc(-c2nnc(Cc3ccc(CCC(=O)O)cc3)o2)ccc1NC(=O)Nc1ccccc1C`, for which the pKi in test [1] is under 6.00.
